Patent US20110136762A1, “FUNGICIDAL PYRIDAZINES” (E.I. Du Pont de Nemours and Company, priority 2008, published 2011)
Marks after values point to notes of the source that are not given here.

Legend:
Format in all cases: in vivo
[1] = system: Erysiphe graminis; assay: Test A: wheat powdery mildew, preventive spray on wheat seedlings, visual disease rating; conditions: 100 = 100% disease control, 0 = no disease control relative to controls; for pest or weed control at 200 ppm: Blumeria graminis, 192 h
Source text: General protocol for preparing test suspensions for Tests A-F: […] The resulting test suspensions were then used in Tests A-F. The test suspensions were sprayed to the point of run-off on the test plants. All results are for 200 ppm (equivalent to a rate of 500 g/ha) except where followed by “*” which indicates 40 ppm. The test suspension was sprayed to the point of run-off on wheat seedlings. The following day the seedlings were inoculated with a spore dust of Erysiphe graminis, (the causal agent of wheat powdery mildew) and incubated in a growth chamber at 20° C. for 8 days, after which time visual disease ratings were made. […] A dash (-) indicates no test results. All results are for 200 ppm except where followed by “*”, which indicates 40 ppm.

[2] = system: Puccinia recondita f. sp. tritici; assay: Test B: wheat leaf rust, preventive spray on wheat seedlings, visual disease rating; conditions: 100 = 100% disease control, 0 = no disease control relative to controls; for pest or weed control at 200 ppm: 192 h
Source text: General protocol for preparing test suspensions for Tests A-F: […] The resulting test suspensions were then used in Tests A-F. The test suspensions were sprayed to the point of run-off on the test plants. All results are for 200 ppm (equivalent to a rate of 500 g/ha) except where followed by “*” which indicates 40 ppm. The test suspension was sprayed to the point of run-off on wheat seedlings. The following day the seedlings were inoculated with a spore suspension of Puccinia recondita f. sp. tritici (the causal agent of wheat leaf rust) and incubated in a saturated atmosphere at 20° C. for 24 h, and then moved to a growth chamber at 20° C. for 7 days, after which time visual disease ratings were made. […] A dash (-) indicates no test results. All results are for 200 ppm except where followed by “*”, which indicates 40 ppm.

[3] = system: Septoria tritici; assay: Test C: wheat leaf blotch, preventive spray on wheat seedlings, visual disease rating; conditions: 100 = 100% disease control, 0 = no disease control relative to controls; for pest or weed control at 200 ppm: Zymoseptoria tritici, 504 h
Source text: General protocol for preparing test suspensions for Tests A-F: […] The resulting test suspensions were then used in Tests A-F. The test suspensions were sprayed to the point of run-off on the test plants. All results are for 200 ppm (equivalent to a rate of 500 g/ha) except where followed by “*” which indicates 40 ppm. The test suspension was sprayed to the point of run-off on wheat seedlings. The following day the seedlings were inoculated with a spore suspension of Septoria tritici (the causal agent of wheat leaf blotch) and incubated in saturated atmosphere at 20° C. for 48 h, and moved to a growth chamber at 20° C. for 19 additional days, after which time visual disease ratings were made. […] A dash (-) indicates no test results. All results are for 200 ppm except where followed by “*”, which indicates 40 ppm.

[4] = system: Septoria nodorum; assay: Test D: wheat glume blotch, preventive spray on wheat seedlings, visual disease rating; conditions: 100 = 100% disease control, 0 = no disease control relative to controls; for pest or weed control at 200 ppm: Parastagonospora nodorum
Source text: General protocol for preparing test suspensions for Tests A-F: […] The resulting test suspensions were then used in Tests A-F. The test suspensions were sprayed to the point of run-off on the test plants. All results are for 200 ppm (equivalent to a rate of 500 g/ha) except where followed by “*” which indicates 40 ppm. The test suspension was sprayed to the point of run-off on wheat seedlings. The following day the seedlings were inoculated with a spore suspension of Septoria nodorum (the causal agent of wheat glume blotch) and incubated in a saturated atmosphere at 20° C. for 48 h, and then moved to a growth chamber at 20° C. for 7 days, after which time visual disease ratings were made. […] A dash (-) indicates no test results. All results are for 200 ppm except where followed by “*”, which indicates 40 ppm.

[5] = system: Alternaria solani; assay: Test E: tomato early blight, preventive spray on tomato seedlings, visual disease rating; conditions: 100 = 100% disease control, 0 = no disease control relative to controls; for pest or weed control at 200 ppm: Alternaria solani
Source text: General protocol for preparing test suspensions for Tests A-F: […] The resulting test suspensions were then used in Tests A-F. The test suspensions were sprayed to the point of run-off on the test plants. All results are for 200 ppm (equivalent to a rate of 500 g/ha) except where followed by “*” which indicates 40 ppm. The test suspension was sprayed to the point of run-off on tomato seedlings. […] A dash (-) indicates no test results. All results are for 200 ppm except where followed by “*”, which indicates 40 ppm.

[6] = system: Botrytis cinerea; assay: Test F: tomato Botrytis, preventive spray on tomato seedlings, visual disease rating; conditions: 100 = 100% disease control, 0 = no disease control relative to controls; for pest or weed control at 200 ppm: Botrytis cinerea
Source text: General protocol for preparing test suspensions for Tests A-F: […] The resulting test suspensions were then used in Tests A-F. The test suspensions were sprayed to the point of run-off on the test plants. All results are for 200 ppm (equivalent to a rate of 500 g/ha) except where followed by “*” which indicates 40 ppm. The test suspension was sprayed to the point of run-off on tomato seedlings. The following day the seedlings were inoculated with a spore suspension of Botrytis cinerea (the causal agent of tomato Botrytis) and incubated in saturated atmosphere at 20° C. for 48 h, and then moved to a growth chamber at 24° C. for 3 days, after which time visual disease ratings were made. […] A dash (-) indicates no test results. All results are for 200 ppm except where followed by “*”, which indicates 40 ppm.

COc1cc(OC)cc(-c2c(-c3ccc(F)cc3)nnc(C)c2-c2ccccc2)c1 [Compound 11]
Test A rating (disease control, wheat powdery mildew) ([1]; 200 ppm): 93% | Test B rating (disease control, wheat leaf rust) ([2]; 200 ppm): 68% | Test C rating (disease control, wheat leaf blotch) ([3]; 200 ppm): 70% | Test D rating (disease control, wheat glume blotch) ([4]; 200 ppm): 0% | Test E rating (disease control, tomato early blight) ([5]; 200 ppm): 0% | Test F rating (disease control, tomato Botrytis) ([6]; 200 ppm): 0%

COc1cc(OC)cc(-c2c(-c3ccccc3)n[n+]([O-])c(C)c2-c2ccc(F)cc2)c1 [Compound 12, 4-(3,5-dimethoxyphenyl)-5-(4-fluorophenyl)-6-methyl-3-phenylpyridazine 1-oxide]
pest or weed control at 200 ppm ([1]; 200 ppm): 62% | pest or weed control at 200 ppm ([2]; 200 ppm): 100% | pest or weed control at 200 ppm ([3]; 200 ppm): 99% | pest or weed control at 200 ppm ([4]; 200 ppm): 0% | pest or weed control at 200 ppm ([5]; 200 ppm): 94% | pest or weed control at 200 ppm ([6]; 200 ppm): 100%

COc1cc(OC)cc(-c2c(-c3ccccn3)nnc(C)c2-c2ccccc2)c1 [Compound 13, 4-(3,5-dimethoxyphenyl)-6-methyl-5-phenyl-3-(2-pyridinyl)pyridazine]
pest or weed control at 200 ppm ([1]; 200 ppm): 0% | pest or weed control at 200 ppm ([2]; 200 ppm): 41% | pest or weed control at 200 ppm ([3]; 200 ppm): 0% | pest or weed control at 200 ppm ([4]; 200 ppm): 0% | pest or weed control at 200 ppm ([5]; 200 ppm): 0% | pest or weed control at 200 ppm ([6]; 200 ppm): 0%

COc1cc(OC)cc(-c2c(-c3ccccc3)nnc(CCl)c2-c2ccc(F)cc2)c1 [Compound 14, 3-(chloromethyl)-5-(3,5-dimethoxyphenyl)-4-(4-fluorophenyl)-6-phenylpyridazine]
pest or weed control at 200 ppm ([1]; 200 ppm): 11% | pest or weed control at 200 ppm ([2]; 200 ppm): 91% | pest or weed control at 200 ppm ([3]; 200 ppm): 77% | pest or weed control at 200 ppm ([4]; 200 ppm): 0% | pest or weed control at 200 ppm ([5]; 200 ppm): 0% | pest or weed control at 200 ppm ([6]; 200 ppm): 99%

COc1cc(OC)cc(-c2c(-c3ccccc3F)nnc(C)c2-c2ccc(F)cc2F)c1 [Compound 15, 4-(2,4-difluorophenyl)-5-(3,5-dimethoxyphenyl)-6-(2-fluorophenyl)-3-methylpyridazine]
pest or weed control at 200 ppm ([1]; 200 ppm): 100% | pest or weed control at 200 ppm ([2]; 200 ppm): 100% | pest or weed control at 200 ppm ([3]; 200 ppm): 99% | pest or weed control at 200 ppm ([4]; 200 ppm): 98% | pest or weed control at 200 ppm ([5]; 200 ppm): 100% | pest or weed control at 200 ppm ([6]; 200 ppm): 98%

COc1cc(OC)cc(-c2c(-c3ccc(F)cc3F)cnnc2-c2ccccc2F)c1 [Compound 16]
Test A rating (disease control, wheat powdery mildew) ([1]; 200 ppm): 0% | Test B rating (disease control, wheat leaf rust) ([2]; 200 ppm): 96% | Test C rating (disease control, wheat leaf blotch) ([3]; 200 ppm): 70% | Test D rating (disease control, wheat glume blotch) ([4]; 200 ppm): 0% | Test E rating (disease control, tomato early blight) ([5]; 200 ppm): 0% | Test F rating (disease control, tomato Botrytis) ([6]; 200 ppm): 99%

COc1cc(OC)cc(-c2c(-c3ccccc3F)nnc(Cl)c2-c2ccc(F)cc2F)c1 [Compound 18, 3-chloro-4-(2,4-difluorophenyl)-5-(3,5-dimethoxyphenyl)-6-(2-fluorophenyl)pyridazine]
pest or weed control at 200 ppm ([1]; 200 ppm): 95% | pest or weed control at 200 ppm ([2]; 200 ppm): 100% | pest or weed control at 200 ppm ([3]; 200 ppm): 98% | pest or weed control at 200 ppm ([4]; 200 ppm): 100% | pest or weed control at 200 ppm ([5]; 200 ppm): 100% | pest or weed control at 200 ppm ([6]; 200 ppm): 95%

C=C(C)c1nnc(C)c(-c2ccc(OC)cc2)c1-c1cc(OC)cc(OC)c1 [Compound 19]
Test A rating (disease control, wheat powdery mildew) ([1]; 200 ppm): 61% | Test B rating (disease control, wheat leaf rust) ([2]; 200 ppm): 98% | Test C rating (disease control, wheat leaf blotch) ([3]; 200 ppm): 98% | Test D rating (disease control, wheat glume blotch) ([4]; 200 ppm): 0% | Test E rating (disease control, tomato early blight) ([5]; 200 ppm): 100% | Test F rating (disease control, tomato Botrytis) ([6]; 200 ppm): 98%

C=C(C)c1nnc(C)c(-c2ccc(F)cc2F)c1-c1cc(OC)cc(OC)c1 [Compound 20]
Test A rating (disease control, wheat powdery mildew) ([1]; 200 ppm): 96% | Test B rating (disease control, wheat leaf rust) ([2]; 200 ppm): 100% | Test C rating (disease control, wheat leaf blotch) ([3]; 200 ppm): 96% | Test D rating (disease control, wheat glume blotch) ([4]; 200 ppm): 0% | Test E rating (disease control, tomato early blight) ([5]; 200 ppm): 100% | Test F rating (disease control, tomato Botrytis) ([6]; 200 ppm): 99%

C=C(C)c1nnc(C)c(-c2c(F)cccc2F)c1-c1cc(OC)cc(OC)c1 [Compound 21]
Test A rating (disease control, wheat powdery mildew) ([1]; 40 ppm (marked *)): 94* % | Test B rating (disease control, wheat leaf rust) ([2]; 40 ppm (marked *)): 99* % | Test C rating (disease control, wheat leaf blotch) ([3]; 40 ppm (marked *)): 98* % | Test D rating (disease control, wheat glume blotch) ([4]; 40 ppm (marked *)): 0* % | Test E rating (disease control, tomato early blight) ([5]; 40 ppm (marked *)): 98* % | Test F rating (disease control, tomato Botrytis) ([6]; 40 ppm (marked *)): 98* %
